# In patent US20210392890A1, “COMPOSITIONS COMPRISING PYRIDINE CARBOXYLATE HERBICIDES AND PLANT GROWTH REGULATORS” (Corteva Agriscience LLC, priority 2018, published 2021):
# Several values for one entry are separate records, joined by “and”; a condition that tells them apart may be missing. Equal entries are not always repeated.
# How the values were obtained:
# Type in all cases: in vivo
# [1] = test system: Viola tricolor (wild pansy); assay: Greenhouse postemergence herbicidal effect on VIOTR; settings: for Herbicidal Effects (% visual injury) VIOTR Obs: Ethephon 0 g/ha
# Excerpt: (§1) Seeds of the desired test plant species were planted in a 90:10% v/v (volume/volume) mixture of PRO-MIX® BX (Premier Tech Horticulture, Quakertown, Pa., USA) and PROFILE® GREENS GRADE™ (Profile Products LLC, Buffalo Grove, Ill., USA) planting mixture, which typically has a pH of 5.2 to 6.2 and an organic matter content of at least 50 percent, in plastic pots with a surface area of 103.2 square centimeters (cm^2). In some aspects, to help ensure good germination and healthy plants, a fungicide treatment and/or other chemical or physical treatment was applied. The plants were grown for 7-36 days (d) in a greenhouse with an approximate 14-hour (h) photoperiod which was maintained at about 23° C. during the day and 22° C. during the night. Nutrients and water were added on a regular basis and supplemental lighting was provided with overhead metal halide 1000-Watt lamps as necessary. The plants were employed for testing when they reached the second or third true leaf stage.
# (§2) Emulsifiable concentrates of each of each pyridine carboxylate herbicide (Compound A or Compound B) were prepared at 100 grams acid equivalent per liter (g ae/L). The emulsifiable concentrates also included a safener, cloquintocet-mexyl, at 120 grams active ingredient per liter (g ai/L). An aliquot of each emulsifiable concentrate was placed in a 25 mL glass vial and diluted with an aqueous mixture of 1.25% (v/v) ACTIROB® B esterified rapeseed oil (Bayer Crop Science, Research Triangle Park, N.C., USA) or MSO® Concentrate with LECI-TECH® methylated soybean oil (Loveland Products, Loveland, Colo., USA) to obtain concentrated stock solutions at the highest application rate for each herbicide, based upon a 12 milliliter (mL) application volume at a rate of 187 liters per hectare (L/ha). The concentrated stock solutions were further diluted with an aqueous mixture of 1.25% v/v ACTIROB® B or MSO® Concentrate with LECI-TECH® to obtain stock solutions at reduced application rates for each herbicide. Spray solutions of the herbicide combinations (Compound A or Compound B plus the PGR) were prepared by adding weighed amounts or aliquots of the PGR to the stock solutions of Compound A or Compound B to form 12-mL spray solutions in two-way combinations.
# (§3) The spray solutions were applied to the plant material with an overhead Mandel track sprayer equipped with 8002E nozzles calibrated to deliver 187 L/ha over an application area of 0.503 square meters (m^2) at a spray height of 18 inches (43 centimeters (cm)) above the average plant canopy. Control plants were sprayed in the same manner with the solvent blank. All pyridine carboxylate herbicide (component a) application rates are given as “g ae/ha” and all PGR (component b) application rates are given as “g ai/ha.”
# (§4) The treated plants and control plants were placed in a greenhouse as described above and watered by sub-irrigation to prevent wash-off of the test compounds. After 20-22 d, the condition of the test plants as compared with that of the control plants was determined visually and scored on a scale of 0 to 100 percent where 0 corresponds to no injury and 100 corresponds to complete kill.
# [2] = test system: Abutilon theophrasti (velvetleaf); assay: Greenhouse postemergence herbicidal effect on ABUTH; settings: for Herbicidal Effects (% visual injury) ABUTH Obs: Ethephon 0 g/ha
# Excerpt: as §1, §2, §3, §4
# [3] = test system: Cirsium arvense (Canada thistle); assay: Greenhouse postemergence herbicidal effect on CIRAR; settings: for Herbicidal Effects (% visual injury) CIRAR Obs: Ethephon 0 g/ha
# Excerpt: as §1, §2, §3, §4
# [4] = test system: Amaranthus retroflexus (pigweed); assay: Greenhouse postemergence herbicidal effect on AMARE; settings: for Herbicidal Effects (% visual injury) AMARE Obs: Ethephon 0 g/ha
# Excerpt: as §1, §2, §3, §4
# Kochia scoparia (kochia) = assay: Greenhouse postemergence herbicidal effect on KCHSC; settings: for Herbicidal Effects (% visual injury) KCHSC Obs: Ethephon 0 g/ha
# Excerpt: as §1, §2, §3, §4
# [5] = test system: Brassica napus (spring rape); assay: Greenhouse postemergence herbicidal effect on BRSNN; settings: for Herbicidal Effects (% visual injury) BRSNN Obs: Ethephon 0 g/ha
# Excerpt: as §1, §2, §3, §4
# [6] = test system: Setaria faberi (giant foxtail); assay: Greenhouse postemergence herbicidal effect on SETFA; settings: for Herbicidal Effects (% visual injury) SETFA Obs: Ethephon 0 g/ha
# Excerpt: as §1, §2, §3, §4
# [7] = test system: Chenopodium album L. (common lambsquarters); assay: Greenhouse postemergence herbicidal effect on CHEAL; settings: Ethephon 0 g/ha
# Excerpt: as §1, §2, §3, §4
# [8] = test system: Cyanus segetum (cornflower); assay: Greenhouse postemergence herbicidal effect on CENCY
# Excerpt: as §1
# (§5) Emulsifiable concentrates of each of each pyridine carboxylate herbicide (Compound A or Compound B) were prepared at 100 grams acid equivalent per liter (g ae/L). The emulsifiable concentrates also included a safener, cloquintocet-mexyl, at 120 grams active ingredient per liter (g ai/L). […]
# as §4
# [9] = test system: Viola arvensis (field violet); assay: Greenhouse postemergence herbicidal effect on VIOAR
# Excerpt: as §1, §5, §4
# [10] = test system: Matricaria discoidea (pineapple weed); assay: Greenhouse postemergence herbicidal effect on MATMT
# Excerpt: as §1, §5, §4
# [11] = test system: Veronica persica (Persian speedwell); assay: Greenhouse postemergence herbicidal effect on VERPE
# Excerpt: as §1, §5, §4
# [12] = test system: Papaver rhoeas (common poppy); assay: Greenhouse postemergence herbicidal effect on PAPRH
# Excerpt: as §1, §5, §4
# [13] = test system: Veronica hederifolia (ivy-leaved speedwell); assay: Greenhouse postemergence herbicidal effect on VERHE
# Excerpt: as §1, §5, §4
# [14] = test system: Brassica napus (winter rape); assay: Greenhouse postemergence herbicidal effect on BRSNW
# Excerpt: as §1, §5, §4
# [15] = test system: Digitaria sanguinalis (large crabgrass); assay: Greenhouse postemergence herbicidal effect on DIGSA; settings: Ethephon 0 g/ha
# Excerpt: as §1, §5
# as §4, with “kill. […]” for “kill.”
# [16] = test system: Echinochloa crus-galli (barnyard grass); assay: Greenhouse postemergence herbicidal effect on ECHCG; settings: Ethephon 0 g/ha
# Excerpt: as §1, §5
# as §4, with “kill. […]” for “kill.”
structure (smiles),measurement,setting,value
"N#CCOC(=O)c1nc(-c2ccc3cc[nH]c3c2F)c(F)c(N)c1Cl [Compound A, cyanomethyl 4-amino-3-chloro-5-fluoro-6-(7-fluoro-1H-indol-6-yl)pyridine-2-carboxylate]",Herbicidal Effects (% visual injury) VIOTR Obs,[1]; Compound A 7.5 g/ha,13%
same,Herbicidal Effects (% visual injury) VIOTR Obs,[1]; Compound A 10 g/ha,20%
same,% visual injury Obs,[1]; herbicide 15 g ae/ha alone,15%
same,Herbicidal Effects (% visual injury) ABUTH Obs,[2]; Compound A 7.5 g/ha,73%
same,Herbicidal Effects (% visual injury) ABUTH Obs,[2]; Compound A 10 g/ha,85%
same,% visual injury Obs,[2]; herbicide 7.5 g ae/ha alone,40% and 68%
same,% visual injury Obs,[2]; herbicide 10 g ae/ha alone,48% and 80%
same,Herbicidal Effects (% visual injury) CIRAR Obs,[3]; Compound A 7.5 g/ha,50%
same,Herbicidal Effects (% visual injury) CIRAR Obs,[3]; Compound A 10 g/ha,60%
same,% visual injury Obs,[3]; herbicide 7.5 g ae/ha alone,25% and 40% and 50%
same,% visual injury Obs,[3]; herbicide 15 g ae/ha alone,63%
same,Herbicidal Effects (% visual injury) AMARE Obs,[4]; Compound A 7.5 g/ha,99%
same,Herbicidal Effects (% visual injury) AMARE Obs,[4]; Compound A 10 g/ha,100%
same,% visual injury Obs,[4]; herbicide 7.5 g ae/ha alone,80% and 88%
same,% visual injury Obs,[4]; herbicide 10 g ae/ha alone,85% and 88%
same,Herbicidal Effects (% visual injury) KCHSC Obs,Kochia scoparia (kochia); Compound A 7.5 g/ha,70%
same,Herbicidal Effects (% visual injury) KCHSC Obs,Kochia scoparia (kochia); Compound A 10 g/ha,65%
same,% visual injury Obs,Kochia scoparia (kochia); herbicide 7.5 g ae/ha alone,63% and 75%
same,% visual injury Obs,Kochia scoparia (kochia); herbicide 10 g ae/ha alone,65% and 73%
same,% visual injury Obs,Kochia scoparia (kochia); herbicide 15 g ae/ha alone,63%
same,Herbicidal Effects (% visual injury) BRSNN Obs,[5]; Compound A 7.5 g/ha,45%
same,Herbicidal Effects (% visual injury) BRSNN Obs,[5]; Compound A 10 g/ha,55%
same,% visual injury Obs,[5]; herbicide 7.5 g ae/ha alone,65%
same,% visual injury Obs,[5]; herbicide 10 g ae/ha alone,65%
same,Herbicidal Effects (% visual injury) SETFA Obs,[6]; Compound A 7.5 g/ha,55%
same,Herbicidal Effects (% visual injury) SETFA Obs,[6]; Compound A 10 g/ha,70%
same,% visual injury Obs,[6]; herbicide 7.5 g ae/ha alone,78%
same,% visual injury Obs,[6]; herbicide 10 g ae/ha alone,80%
same,Herbicidal Effects (% visual injury) CHEAL Obs,[7]; Compound A 7.5 g/ha,100%
same,Herbicidal Effects (% visual injury) CHEAL Obs,[7]; Compound A 10 g/ha,100%
same,% visual injury Obs,[8]; herbicide 7.5 g ae/ha alone,75%
same,% visual injury Obs,[8]; herbicide 10 g ae/ha alone,78%
same,% visual injury Obs,[8]; herbicide 15 g ae/ha alone,80%
same,% visual injury Obs,[9]; herbicide 7.5 g ae/ha alone,10%
same,% visual injury Obs,[9]; herbicide 10 g ae/ha alone,13%
same,% visual injury Obs,[9]; herbicide 15 g ae/ha alone,10%
same,% visual injury Obs,[10]; herbicide 7.5 g ae/ha alone,20%
same,% visual injury Obs,[10]; herbicide 10 g ae/ha alone,20%
same,% visual injury Obs,[10]; herbicide 15 g ae/ha alone,63%
same,% visual injury Obs,[11]; herbicide 7.5 g ae/ha alone,78%
same,% visual injury Obs,[11]; herbicide 10 g ae/ha alone,90%
same,% visual injury Obs,[11]; herbicide 15 g ae/ha alone,93%
same,% visual injury Obs,[12]; herbicide 7.5 g ae/ha alone,100%
same,% visual injury Obs,[12]; herbicide 10 g ae/ha alone,99%
same,% visual injury Obs,[12]; herbicide 15 g ae/ha alone,100%
same,% visual injury Obs,[13]; herbicide 7.5 g ae/ha alone,68%
same,% visual injury Obs,[13]; herbicide 10 g ae/ha alone,73%
same,% visual injury Obs,[13]; herbicide 15 g ae/ha alone,75%
same,% visual injury Obs,[14]; herbicide 7.5 g ae/ha alone,60%
same,% visual injury Obs,[14]; herbicide 10 g ae/ha alone,65%
same,% visual injury Obs,[14]; herbicide 15 g ae/ha alone,73%
same,Herbicidal Effects (% visual injury) DIGSA Obs,[15]; Compound A 7.5 g/ha,10%
same,Herbicidal Effects (% visual injury) DIGSA Obs,[15]; Compound A 10 g/ha,10%
same,Herbicidal Effects (% visual injury) ECHCG Obs,[16]; Compound A 7.5 g/ha,90%
same,Herbicidal Effects (% visual injury) ECHCG Obs,[16]; Compound A 10 g/ha,94%
